Source: ChEMBL document CHEMBL1240338, “BIBF 1120: triple angiokinase inhibitor with sustained receptor blockade and good antitumor efficacy” (Cancer Res, 2008)

Experiments:
[1] = Antiangiogenic activity in HSMEC assessed as inhibition of VEGF-induced cell proliferation by [3H]thymidine incorporation assay; format: functional; conditions: Homo sapiens
FaDu [2] = experiment: Antitumor activity against human FADU cells xenografted in NMRI nu/nu mouse assessed as reduction of tumor vessel density at 100 mg/kg, po qd for 5 days by Meca 32 immunohistochemistry image analysis relative to control; design: scale not given: the % may be the effect or the level left
HeLa = experiment: Antiangiogenic activity in human HeLa assessed as inhibition of cell proliferation by [3H]thymidine incorporation assay in presence of fetal calf serum; format: functional, cell-based
[3] = Antitumor activity against rat GS-9L cells implanted in syngeneic F344 Fischer rat assessed as inhibition of tumor growth at 25 mg/kg, po qd for 5 days relative to control
HUVEC [4] = experiment: Induction of apoptosis in HUVEC at 50 nM by TUNEL assay (reference value: 2%); format: cell-based; conditions: human, 0.05 µM
FaDu [5] = experiment: Antitumor activity against human FADU cells xenografted in NMRI nu/nu mouse assessed as tumor growth at 10 mg/kg, po qd for 5 days relative to control
FaDu [6] = experiment: Antitumor activity against human FADU cells xenografted in NMRI nu/nu mouse assessed as reduction of PDGFR-beta-positive mural cells at 100 mg/kg, po qd for 5 days by PDGFR-beta immunohistochemistry image analysis relative to control; design: scale not given: the % may be the effect or the level left
CAKI-1 [7] = experiment: Antitumor activity against human Caki1 cells xenografted in NMRI nu/nu mouse assessed as tumor growth at 10 mg/kg, po qd for 5 days relative to control
[8] = Trough plasma concentration in NMRI nu/nu mouse at 50 mg/kg, po after 24 hrs; format: ADME, organism-based; design: dose 50 mg/kg, route oral
[9] = Antiangiogenic activity in BRP assessed as inhibition of PDGF BB-induced cell proliferation by [3H]thymidine incorporation assay; format: functional; conditions: Bos taurus
HUVEC [10] = experiment: Antiangiogenic activity in HUVEC assessed as inhibition of bFGF-induced cell proliferation by [3H]thymidine incorporation assay; format: functional, cell-based; conditions: Homo sapiens
Calu-6 = experiment: Antiangiogenic activity in human Calu6 assessed as inhibition of cell proliferation by [3H]thymidine incorporation assay in presence of fetal calf serum; format: functional, cell-based
[11] = Plasma concentration in NMRI nu/nu mouse at 50 mg/kg, po after 1 hr; format: ADME, organism-based; design: dose 50 mg/kg, route oral
[12] = Antitumor activity against rat GS-9L cells implanted in syngeneic F344 Fischer rat assessed as inhibition of tumor growth at 10 mg/kg, po qd for 5 days relative to control
HUVEC [13] = experiment: Antiangiogenic activity in HUVEC assessed as inhibition of VEGF-induced apoptosis by [3H]thymidine incorporation assay; format: functional, cell-based; conditions: Homo sapiens
CAKI-1 [14] = experiment: Antitumor activity against human Caki1 cells xenografted in NMRI nu/nu mouse assessed as tumor growth at 100 mg/kg, po qd for 5 days relative to control
[15] = Antiangiogenic activity in HUASMC assessed as inhibition of PDGF BB-induced cell proliferation by [3H]thymidine incorporation assay; format: functional; conditions: Homo sapiens
FaDu [16] = experiment: Antitumor activity against human FADU cells xenografted in NMRI nu/nu mouse assessed as tumor growth at 25 mg/kg, po qd for 5 days relative to control
FaDu [17] = experiment: Antiangiogenic activity in human FADU assessed as inhibition of cell proliferation by [3H]thymidine incorporation assay in presence of fetal calf serum; format: functional, cell-based
[18] = molecular target: Cyclin-dependent kinase 2 (Homo sapiens, UniProt P24941); experiment: Inhibition of human CDK2
FaDu [19] = experiment: Antitumor activity against human FADU cells xenografted in NMRI nu/nu mouse assessed as inhibition of tumor growth at 50 mg/kg, po qd for 2 days relative to control; format: functional
Mus musculus [20] = experiment: Toxicity in human FADU cells xenografted in NMRI nu/nu mouse assessed mortality at 100 mg/kg, po qd for 5 days; format: organism-based; design: dose 100 mg/kg, route oral; conditions: in vivo, 120 h
CAKI-1 [21] = experiment: Antitumor activity against human Caki1 cells xenografted in NMRI nu/nu mouse assessed as tumor growth at 50 mg/kg, po qd for 5 days relative to control
FaDu [22] = experiment: Antitumor activity against human FADU cells xenografted in NMRI nu/nu mouse assessed as tumor growth at 100 mg/kg, po qd for 5 days relative to control
[23] = Antitumor activity against rat GS-9L cells implanted in syngeneic F344 Fischer rat assessed as inhibition of tumor growth at 50 mg/kg, po qd for 5 days relative to control
[24] = Antiangiogenic activity in HSMEC assessed as inhibition of VEGF-induced apoptosis by [3H]thymidine incorporation assay; format: functional, Homo sapiens
HUVEC [25] = experiment: Antiangiogenic activity in HUVEC assessed as inhibition of VEGF-induced cell proliferation by [3H]thymidine incorporation assay; format: functional, cell-based; conditions: Homo sapiens
FaDu [26] = experiment: Antitumor activity against human FADU cells xenografted in NMRI nu/nu mouse assessed as tumor growth at 50 mg/kg, po qd for 5 days relative to control
Mus musculus [27] = experiment: Toxicity in human FADU cells xenografted in NMRI nu/nu mouse assessed weight loss at 100 mg/kg, po qd for 5 days; format: organism-based; design: dose 100 mg/kg, route oral; conditions: in vivo, 120 h

## COC(=O)c1ccc2c(c1)NC(=O)/C2=C(\Nc1ccc(N(C)C(=O)CN2CCN(C)CC2)cc1)c1ccccc1 [NINTEDANIB]
[1]
  EC50: 0.007 µM
FaDu [2]
  Activity: 76%
HeLa
  EC50: > 3.5 µM
[3]
  T/C: 45%
HUVEC [4]
  Activity: 28%
FaDu [5]
  T/C: 82%
FaDu [6]
  Activity: 64%
CAKI-1 [7]
  T/C: 71%
[8]
  concentration at 24 h: < 8 nM
[9]
  EC50: 0.079 µM
HUVEC [10]
  EC50: 0.29 µM
Calu-6
  EC50: > 3.5 µM
[11]
  concentration at 1 h: 1000 nM
[12]
  T/C: 74%
HUVEC [13]
  EC50: < 0.01 µM
CAKI-1 [14]
  T/C: 16%
[15]
  EC50: 0.069 µM
FaDu [16]
  T/C: 46%
FaDu [17]
  EC50: > 4.5 µM
[18]
  IC50: > 10 µM
FaDu [19]
  T/C: 15%
Mus musculus [20]
  Activity: Non-toxic
CAKI-1 [21]
  T/C: 25%
FaDu [22]
  T/C: 11%
[23]
  T/C: 30%
[24]
  EC50: < 0.01 µM
HUVEC [25]
  EC50: 0.009 µM
FaDu [26]
  T/C: 27%
Mus musculus [27]
  Activity: Non-toxic
